By IC50 is commonly meant the concentration at which inhibition is half-maximal.

Structures are written as SMILES. Like-named read-outs stand apart in the source and are kept apart here.

One test relates to CHO/C5-MOCK cells. Kind of test: Growth inhibition, SRB assay, CHO/C5-MOCK (empty vector). The test is classed as cell-based, Chinese hamster. The procedure:
(§1) Briefly, cells were seeded in triplicate in 96-well plates at their pre-established optimal density (CHO cells: 2,500 cells/100 μL; WiDr and HT29: 3,500 cells/100 μL; WiDr-LF/LV, LS174T: 5,000 cells/100 μL; CaCo2, CaCo2-LF/LV, H292, H28 and MSTO-211H: 6,000 cells/100 μL; H460, SW948 and SW1398: 7,000 cells/100 μL) and were allowed to attach for ∼ 24 h at 37°C in 5% CO2 and 100% humidified incubator. Thereafter, 100 μL of drug dilution without LV, or with 5 μM l-LV/5 μM d-LV/10 μM dL-LV (or any LV alone) were added. Cells were allowed to grow for 72 h at 37°C in 5% CO2 and 100% humidity. The t = 0 h control plate consisted of cells plated on the same day as the other cells, but after 24 h at 37°C in 5% CO2 and 100% humidity, only 100 μL medium was added and the cells were fixed immediately with 50% trichloroacetic acid (TCA) in milliQ water (25 μL per well) and put at 4°C for at least 1 h. Plates were washed five times with water and dried. Cells were stained with the SRB protein dye (0.4% (w/v) in 1% acetic acid. Excess dye was washed away four times with 1% acetic acid and plates were dried again. 200 μL of Tris (10 mM Tris (hydroxymethyl)-aminomethane in MQ) was added and optical density (OD) was read at 492 nm after mixing 2–3 min on a plate shaker.
A general note: Sulforhodamine B stains cellular protein and so reports cell mass.

Another test relates to CHO/C5-hRFC cells. The experiment in a line: Growth inhibition, SRB assay, CHO/C5-hRFC (human RFC transfected). The test is classed as cell-based, Chinese hamster. Conditions: CHO/C5-hRFC. Here is the method:
as §1

A further test concerns MSTO-211H cells. Kind of test: Growth inhibition, SRB assay, MSTO-211H (MPM). The test is classed as cell-based, human. Conditions: for IC50: SRB, read-out: IC50, 72 h drug exposure. Here is the method: as §1
The test system of another test is H460 cells. Kind of test: Growth inhibition, SRB assay, H460 (NSCLC). The test is classed as cell-based, human. The following applies: for IC50: H460, SRB, read-out: IC50, 72 h drug exposure. Here is the method:
as §1

For another test, the target named is T1, folate receptor α (FRα) (Homo sapiens, UniProt P15328).
T1 construct: endogenous in cells; host or cells: KB cells (FRα++)
Kind of test: Intact cell competitive binding assay, displacement of [3H]-folic acid from FRα in KB cells.

For another test, the system named is AA8 cells. The experiment in a line: Growth inhibition, SRB assay, AA8 (parental CHO). The test is classed as cell-based, Chinese hamster. The following applies: for IC50: AA8 parental CHO. Here is the method: as §1
Test [1] addresses T2, thymidylate synthase (TS) (Homo sapiens, UniProt P04818).
T2 construct: The principle of this assay is the measurement of TS enzymatic activity in intact cells; endogenous in cells; host or cells: colon cancer cell lines (WiDr, WiDr-LF, SW1398, LS174T and others)
Kind of test: TS in situ inhibition assay (TSIA) in colon cancer cells. Conditions: WiDr, 4 h, antifolate alone. The test is classed as cell-based. From the text:
The principle of this assay is the measurement of TS enzymatic activity in intact cells. Intact cells will readily internalize radioactively labelled [5-^3H]-deoxycytidine, which will be rapidly converted by deoxycytidine kinase (dCK) to [5-^3H]-dCMP and subsequently deaminated to [5-^3H]-dUMP, which will then serve as a substrate in the TS catalysed reaction to dTMP and ^3H2O; the quantity of ^3H2O formed over time is a measure of intracellular TS activity. […] This is because dCK has a higher, cell cycle independent activity than thymidine kinase 1, which is a cell cycle dependent enzyme. For this purpose, cancer cells were cultured in six wells plates at 2.5 × 10^5 cells/2 mL/well for 24 h. Thereafter, cells were exposed to drugs with or without the LV formulations at the indicated concentrations for 4 h. 2 h before the end of the incubation period [5-^3H]-2′-deoxycytidine (final concentration 1 µM) was added to the cells. […] In most cell lines we quantified dCK activity and dCK mRNA levels.

Where [2] appears, read: Cricetulus griseus, antifolate alone.

T1 sequence (P15328 25-257): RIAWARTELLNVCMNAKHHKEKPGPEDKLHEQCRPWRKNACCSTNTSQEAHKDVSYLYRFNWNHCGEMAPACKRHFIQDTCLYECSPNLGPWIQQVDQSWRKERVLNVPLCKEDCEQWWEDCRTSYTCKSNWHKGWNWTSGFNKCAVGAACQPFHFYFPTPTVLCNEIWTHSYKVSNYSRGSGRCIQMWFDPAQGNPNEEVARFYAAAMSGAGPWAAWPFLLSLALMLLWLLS
T2 sequence (P04818 2-313 limits assumed): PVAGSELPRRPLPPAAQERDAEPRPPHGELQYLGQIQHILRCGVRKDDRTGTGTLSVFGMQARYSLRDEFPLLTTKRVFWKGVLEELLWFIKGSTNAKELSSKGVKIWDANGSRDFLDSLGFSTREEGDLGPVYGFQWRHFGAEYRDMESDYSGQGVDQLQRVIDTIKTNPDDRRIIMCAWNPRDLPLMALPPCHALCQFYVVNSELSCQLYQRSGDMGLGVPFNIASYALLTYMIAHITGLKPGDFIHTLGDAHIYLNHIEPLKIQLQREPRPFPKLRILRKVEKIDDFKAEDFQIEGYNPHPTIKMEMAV

`C#CCC(Cc1cnc2nc(N)nc(N)c2n1)c1ccc(C(=O)N[C@@H](CCC(=O)O)C(=O)O)cc1` (stereo partly shown) [PLX, pralatrexate]: the IC50 with CHO/C5-MOCK cells (setting [2]) was 13100 nM; in the test with CHO/C5-MOCK cells (antifolate + 5 µM l-LV) it was more than 100000 nM; with CHO/C5-hRFC cells (antifolate + 5 µM l-LV), 900 nM; in the test with CHO/C5-hRFC cells (setting [2]) it was 3.8 nM; with MSTO-211H cells (Homo sapiens, 72 h, antifolate alone) it was 2.4 ± 0.1 nM; in the test on MSTO-211H cells (antifolate + 5 µM l-LV), 3340 nM. Also, the IC50 in the test on H460 cells (antifolate + 5 µM l-LV) was found to be 1450 nM; with H460 cells (Homo sapiens, NCI-H460, 72 h, antifolate alone), 2.8 ± 0.1 nM; with AA8 cells (antifolate + 5 µM l-LV), 3670 nM; in the test on AA8 cells (setting [2]) it was 3.8 nM; in test [1] it was 17.7 ± 4.7 nM. For the same compound, the “Relative protection by 5 µM l-LV” value in the test on MSTO-211H cells (ratio IC50 antifolate + LV / IC50 antifolate) was 1,601 ± 275; in the test with H460 cells (H460, ratio IC50 antifolate + LV / IC50 antifolate) it was 502 ± 21. Besides, the “Molar excess over folic acid required for displacement of [3H]-FA binding from FRα” value at folate receptor α (FRα) is given as more than 100 fold. For the same compound, on folate receptor α (FRα) (100 pmol [3H]-FA, inverse ratio of amount of drug displacing 50% of [3H]-FA, FA set to 1), the “Relative affinity for FRα” value came out at 0.0035. Further, the “Protection by l-LV, increase of the IC50 value” in the test on AA8 cells (AA8 cells, 5 µM l-LV) is 965 fold.

These data come from article PMC11371747, “The role of l-leucovorin uptake and metabolism in the modulation of 5-fluorouracil efficacy and antifolate toxicity” (Frontiers in Pharmacology, 2024).
